Results on 18 molecules are retold here after article PMC6071684, “Defining the hydrophobic interactions that drive competence stimulating peptide (CSP)-ComD binding in Streptococcus pneumoniae” (Beilstein Journal of Organic Chemistry, 2018).

Where a SMILES comes first, the peptide text is derived from it. [ ]: non-standard residue; d: D form. Phg = N[C@H](C(=O)O)c1ccccc1; Nle = CCCC[C@H](N)C(=O)O; Nva = CCC[C@H](N)C(=O)O

For one assay, the target named is ComD2 receptor (Streptococcus pneumoniae serotype 4, UniProt A0A0H2US84). Briefly: cell-based. As for the experimental part:
(§1) To assess QS modulation, we utilized the β-gal reporter strains, constructed by Lau and co-worker. In these strains the lacZ gene is under the control of QS (pcomX). Thus, upon QS activation, ComE will bind pcomX and transcribe lacZ (in addition to upregulation of ComX). ComD modulation can therefore be quantified by measuring β-gal activity. The peptides were first screened for their ability to activate/inhibit the ComD1 and ComD2 receptors at high concentration (10 µM).
(§2) To examine the ability of the synthesized CSP analogs to modulate the ComD receptors, and thus the QS circuit in S. pneumoniae, β-galactosidase assays were performed using D39pcomX::lacZ (group I) and TIGR4pcomX::lacZ (group II) reporter strains as described in [19].
(§3) Bacterial growth conditions. Bacteria from a freezer stock were grown as described in [19]. Briefly, the bacteria were streaked into a THY agar plate supplemented with 5% donor horse serum and chloramphenicol at a final concentration of 4 µg/mL. The plate was incubated for 8 h in a CO2 incubator (37 °C with 5% CO2). Fresh colonies (single colony for D39pcomX::lacZ; multiple colonies for TIGR4pcomX::lacZ) were picked into sterilized cultural tubes containing 5 mL of THY broth supplemented with chloramphenicol at a final concentration of 4 µg/mL and the cultures were incubated in a CO2 incubator overnight (15 h). Overnight cultures were then diluted (1:50 for D39pcomX::lacZ; 1:10 for TIGR4pcomX::lacZ) with THY and the resulting solution was incubated in a CO2 incubator for 3–4 hours, until the bacteria reached early exponential stage (0.30–0.35 for D39pcomX::lacZ; 0.20–0.25 for TIGR4pcomX::lacZ) as determined by using a plate reader.
(§4) β-Galactosidase assay. Activation assays. […] Briefly, an initial activation screening was performed at high concentration (10 µM) for all CSP analogs. 2 µL of 1 mM solution of CSP analogs in dimethyl sulfoxide (DMSO) were added in triplicate to a clear 96-well microtiter plate. […] 2 µL of DMSO was added in triplicate and served as the negative control for both groups. Then, 198 µL of bacterial culture was added to each well containing CSP and analogs, the plate was incubated at 37 °C for 30 minutes, and the OD600nm was measured. In order to measure the β-galactosidase activity in the pneumococcal culture, the cells were lysed by incubating the culture for 30 minutes at 37 °C with 20 µL of 0.1% Triton X-100. In a new plate, 100 µL of Z-buffer solution (60.2 mM Na2HPO4, 45.8 mM NaH2PO4, 10 mM KCl, and 1.0 mM MgSO4 in 18 MΩ H2O; pH was adjusted to 7.0 and the buffer was sterilized before use) containing 2-nitrophenyl-β-D-galactopyranoside (ONPG) at a final concentration of 0.4 mg/mL was added, followed by 100 µL of lysate, and the plate was incubated for 3 hours at 37 °C. The reaction was stopped by adding 50 µL of 1 M sodium carbonate solution, and the OD420nm and OD550nm were measured using a plate reader. […] For calculation of Miller units, please see data analysis below.
(§5) Analysis of activation/inhibition data. Miller units were calculated using the following formula: […]
(§6) Abs420 is the absorbance of ortho-nitrophenol (ONP). Abs550 is the scatter from cell debris, which, when multiplied by 1.75 approximates the scatter observed at 420 nm. t is the duration of incubation with ONPG in minutes, v is volume of lysate in milliliters, and Abs600 reflects cell density.

The target in another assay is ComD1 receptor (Streptococcus pneumoniae serotype 2, UniProt A0A0H2ZM50). Briefly: cell-based. As for the experimental part:
as §1, §2, §3, §4, §5, §6

Assay [1] deals with ComD1 receptor (S. pneumoniae (endogenous in D39pcomX::lacZ)).

Chain of ComD2 receptor (A0A0H2US84 entry or part of it): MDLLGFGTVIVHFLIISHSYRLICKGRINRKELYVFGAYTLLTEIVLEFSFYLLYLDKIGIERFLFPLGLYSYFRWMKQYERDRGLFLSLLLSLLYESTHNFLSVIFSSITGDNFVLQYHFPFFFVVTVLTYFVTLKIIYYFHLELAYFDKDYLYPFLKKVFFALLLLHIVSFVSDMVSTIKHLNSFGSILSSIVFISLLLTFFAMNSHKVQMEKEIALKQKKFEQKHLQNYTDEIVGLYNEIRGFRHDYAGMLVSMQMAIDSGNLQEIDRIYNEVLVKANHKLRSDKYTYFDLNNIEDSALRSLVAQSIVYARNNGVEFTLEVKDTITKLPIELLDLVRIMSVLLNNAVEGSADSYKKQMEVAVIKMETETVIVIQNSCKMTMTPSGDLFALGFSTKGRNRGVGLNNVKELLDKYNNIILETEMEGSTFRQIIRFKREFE
Chain of ComD1 receptor (A0A0H2ZM50 entry or part of it): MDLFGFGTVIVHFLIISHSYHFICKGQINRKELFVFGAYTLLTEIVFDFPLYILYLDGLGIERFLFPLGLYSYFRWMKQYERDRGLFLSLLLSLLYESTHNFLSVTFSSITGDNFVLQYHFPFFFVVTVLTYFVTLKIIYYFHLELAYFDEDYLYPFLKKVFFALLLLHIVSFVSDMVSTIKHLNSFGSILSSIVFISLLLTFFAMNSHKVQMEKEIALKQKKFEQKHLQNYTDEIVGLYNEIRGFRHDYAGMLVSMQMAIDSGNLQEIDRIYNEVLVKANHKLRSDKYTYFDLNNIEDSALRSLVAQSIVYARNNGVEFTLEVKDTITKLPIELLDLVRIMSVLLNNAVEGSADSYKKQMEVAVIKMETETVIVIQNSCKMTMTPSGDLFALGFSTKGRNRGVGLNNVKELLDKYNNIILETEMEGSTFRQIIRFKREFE

As to `CC[C@H](C)[C@H](NC(=O)[C@H](Cc1ccccc1)NC(=O)[C@H](CC(=O)O)NC(=O)[C@H](CCCNC(=N)N)NC(=O)[C@H](Cc1ccccc1)NC(=O)[C@@H](NC(=O)[C@H](CCCCN)NC(=O)[C@H](CO)NC(=O)[C@H](CC(C)C)NC(=O)[C@H](CCCNC(=N)N)NC(=O)[C@H](CCSC)NC(=O)[C@@H](N)CCC(=O)O)c1ccccc1)C(=O)N[C@@H](CC(C)C)C(=O)N[C@@H](CCC(N)=O)C(=O)N[C@@H](CCCNC(=N)N)C(=O)N[C@@H](CCCCN)C(=O)N[C@@H](CCCCN)C(=O)O` [CSP1-F7FG] (H-EMRLSK[Phg]FRDFILQRKK-OH; N-terminus assumed), the figures for the EC50 on ComD2 receptor and at ComD1 receptor were 828 nM and 81.3 nM, respectively.

Regarding `CC[C@H](C)[C@H](NC(=O)[C@H](Cc1ccccc1)NC(=O)[C@H](CC(=O)O)NC(=O)[C@H](CCCNC(=N)N)NC(=O)[C@H](Cc1ccccc1)NC(=O)[C@H](CCc1ccccc1)NC(=O)[C@H](CCCCN)NC(=O)[C@H](CO)NC(=O)[C@H](CC(C)C)NC(=O)[C@H](CCCNC(=N)N)NC(=O)[C@H](CCSC)NC(=O)[C@@H](N)CCC(=O)O)C(=O)N[C@@H](CC(C)C)C(=O)N[C@@H](CCC(N)=O)C(=O)N[C@@H](CCCNC(=N)N)C(=O)N[C@@H](CCCCN)C(=O)N[C@@H](CCCCN)C(=O)O` [CSP1-F7HF], the EC50 turned out to be 317 nM on ComD2 receptor and 81.7 nM at ComD1 receptor.

As for `CC[C@H](C)[C@H](NC(=O)[C@H](Cc1ccccc1)NC(=O)[C@H](CC(=O)O)NC(=O)[C@H](CCCNC(=N)N)NC(=O)[C@@H](NC(=O)[C@H](Cc1ccccc1)NC(=O)[C@H](CCCCN)NC(=O)[C@H](CO)NC(=O)[C@H](CC(C)C)NC(=O)[C@H](CCCNC(=N)N)NC(=O)[C@H](CCSC)NC(=O)[C@@H](N)CCC(=O)O)c1ccccc1)C(=O)N[C@@H](CC(C)C)C(=O)N[C@@H](CCC(N)=O)C(=O)N[C@@H](CCCNC(=N)N)C(=O)N[C@@H](CCCCN)C(=O)N[C@@H](CCCCN)C(=O)O` [CSP1-F8FG] (H-EMRLSKF[Phg]RDFILQRKK-OH; N-terminus assumed), the “ComD2 primary agonism screening: low induction, EC50 not determined” value on ComD2 receptor (TIGR4pcomX::lacZ, 10 µM peptide, only analogs with greater than 75% activation compared to CSP2 were taken to EC50) is given as “–^e”. Moreover, on ComD1 receptor, the EC50 was found to be 884 nM.

`CC[C@H](C)[C@H](NC(=O)[C@H](Cc1ccccc1)NC(=O)[C@H](CC(=O)O)NC(=O)[C@H](CCCNC(=N)N)NC(=O)[C@H](CCc1ccccc1)NC(=O)[C@H](Cc1ccccc1)NC(=O)[C@H](CCCCN)NC(=O)[C@H](CO)NC(=O)[C@H](CC(C)C)NC(=O)[C@H](CCCNC(=N)N)NC(=O)[C@H](CCSC)NC(=O)[C@@H](N)CCC(=O)O)C(=O)N[C@@H](CC(C)C)C(=O)N[C@@H](CCC(N)=O)C(=O)N[C@@H](CCCNC(=N)N)C(=O)N[C@@H](CCCCN)C(=O)N[C@@H](CCCCN)C(=O)O` [CSP1-F8HF]: the results for the EC50 at ComD2 receptor and on ComD1 receptor were > 1000 nM and 43.4 nM, respectively.

For `CC[C@H](C)[C@H](NC(=O)[C@@H](NC(=O)[C@H](CC(=O)O)NC(=O)[C@H](CCCNC(=N)N)NC(=O)[C@H](Cc1ccccc1)NC(=O)[C@H](Cc1ccccc1)NC(=O)[C@H](CCCCN)NC(=O)[C@H](CO)NC(=O)[C@H](CC(C)C)NC(=O)[C@H](CCCNC(=N)N)NC(=O)[C@H](CCSC)NC(=O)[C@@H](N)CCC(=O)O)c1ccccc1)C(=O)N[C@@H](CC(C)C)C(=O)N[C@@H](CCC(N)=O)C(=O)N[C@@H](CCCNC(=N)N)C(=O)N[C@@H](CCCCN)C(=O)N[C@@H](CCCCN)C(=O)O` [CSP1-F11FG] (H-EMRLSKFFRD[Phg]ILQRKK-OH; N-terminus assumed), the EC50 on ComD2 receptor and at ComD1 receptor was > 1000 nM throughout.

`CC[C@H](C)[C@H](NC(=O)[C@H](CCc1ccccc1)NC(=O)[C@H](CC(=O)O)NC(=O)[C@H](CCCNC(=N)N)NC(=O)[C@H](Cc1ccccc1)NC(=O)[C@H](Cc1ccccc1)NC(=O)[C@H](CCCCN)NC(=O)[C@H](CO)NC(=O)[C@H](CC(C)C)NC(=O)[C@H](CCCNC(=N)N)NC(=O)[C@H](CCSC)NC(=O)[C@@H](N)CCC(=O)O)C(=O)N[C@@H](CC(C)C)C(=O)N[C@@H](CCC(N)=O)C(=O)N[C@@H](CCCNC(=N)N)C(=O)N[C@@H](CCCCN)C(=O)N[C@@H](CCCCN)C(=O)O` [CSP1-F11HF]: the EC50 at ComD2 receptor is > 1000 nM; at ComD1 receptor it was 65.8 nM.

`CCCC[C@H](NC(=O)[C@H](Cc1ccccc1)NC(=O)[C@H](CC(=O)O)NC(=O)[C@H](CCCNC(=N)N)NC(=O)[C@H](Cc1ccccc1)NC(=O)[C@H](Cc1ccccc1)NC(=O)[C@H](CCCCN)NC(=O)[C@H](CO)NC(=O)[C@H](CC(C)C)NC(=O)[C@H](CCCNC(=N)N)NC(=O)[C@H](CCSC)NC(=O)[C@@H](N)CCC(=O)O)C(=O)N[C@@H](CC(C)C)C(=O)N[C@@H](CCC(N)=O)C(=O)N[C@@H](CCCNC(=N)N)C(=O)N[C@@H](CCCCN)C(=O)N[C@@H](CCCCN)C(=O)O` [CSP1-I12NL] (H-EMRLSKFFRDF[Nle]LQRKK-OH; N-terminus assumed): the EC50 is > 1000 nM at ComD2 receptor and 6.68 nM on ComD1 receptor.

Turning to `CCC[C@H](NC(=O)[C@H](Cc1ccccc1)NC(=O)[C@H](CC(=O)O)NC(=O)[C@H](CCCNC(=N)N)NC(=O)[C@H](Cc1ccccc1)NC(=O)[C@H](Cc1ccccc1)NC(=O)[C@H](CCCCN)NC(=O)[C@H](CO)NC(=O)[C@H](CC(C)C)NC(=O)[C@H](CCCNC(=N)N)NC(=O)[C@H](CCSC)NC(=O)[C@@H](N)CCC(=O)O)C(=O)N[C@@H](CC(C)C)C(=O)N[C@@H](CCC(N)=O)C(=O)N[C@@H](CCCNC(=N)N)C(=O)N[C@@H](CCCCN)C(=O)N[C@@H](CCCCN)C(=O)O` [CSP1-I12NV] (H-EMRLSKFFRDF[Nva]LQRKK-OH; N-terminus assumed), the EC50 on ComD2 receptor was 853 nM; at ComD1 receptor it was 13.8 nM.

As to `CCCC[C@H](NC(=O)[C@H](CCCNC(=N)N)NC(=O)[C@H](CCSC)NC(=O)[C@@H](N)CCC(=O)O)C(=O)N[C@@H](CO)C(=O)N[C@@H](CCCCN)C(=O)N[C@@H](Cc1ccccc1)C(=O)N[C@@H](Cc1ccccc1)C(=O)N[C@@H](CCCNC(=N)N)C(=O)N[C@@H](CC(=O)O)C(=O)N[C@@H](Cc1ccccc1)C(=O)N[C@H](C(=O)N[C@@H](CC(C)C)C(=O)N[C@@H](CCC(N)=O)C(=O)N[C@@H](CCCNC(=N)N)C(=O)N[C@@H](CCCCN)C(=O)N[C@@H](CCCCN)C(=O)O)[C@@H](C)CC` [CSP1-L4NL], the EC50 was > 1000 nM on ComD2 receptor and 13.5 nM at ComD1 receptor.

Take `CCC[C@H](NC(=O)[C@H](CCCNC(=N)N)NC(=O)[C@H](CCSC)NC(=O)[C@@H](N)CCC(=O)O)C(=O)N[C@@H](CO)C(=O)N[C@@H](CCCCN)C(=O)N[C@@H](Cc1ccccc1)C(=O)N[C@@H](Cc1ccccc1)C(=O)N[C@@H](CCCNC(=N)N)C(=O)N[C@@H](CC(=O)O)C(=O)N[C@@H](Cc1ccccc1)C(=O)N[C@H](C(=O)N[C@@H](CC(C)C)C(=O)N[C@@H](CCC(N)=O)C(=O)N[C@@H](CCCNC(=N)N)C(=O)N[C@@H](CCCCN)C(=O)N[C@@H](CCCCN)C(=O)O)[C@@H](C)CC` [CSP1-L4NV] (H-EMR[Nva]SKFFRDFILQRKK-OH; N-terminus assumed): the values for the EC50 on ComD2 receptor and on ComD1 receptor were 627 nM and 5.74 nM, respectively.

In assay [1], CSP1-F7Y (peptide) registered an EC50 of activation of pcomX::lacZ (β-galactosidase) in reporter strain D39pcomX::lacZ (group I, ComD1) of 344 nM.

Take CSP1-F8FG (peptide): the EC50 of activation of pcomX::lacZ (β-galactosidase) in reporter strain D39pcomX::lacZ (group I, ComD1) in assay [1] amounted to 884 nM.

CSP1-F8Y (peptide) showed an EC50 of activation of pcomX::lacZ (β-galactosidase) in reporter strain D39pcomX::lacZ (group I, ComD1) in assay [1] of 85 nM.

Consider CSP1-F11Y (peptide), for which, in assay [1], the EC50 of activation of pcomX::lacZ (β-galactosidase) in reporter strain D39pcomX::lacZ (group I, ComD1) came out at 95.6 nM.

For CSP1-I12V (peptide), the EC50 of activation of pcomX::lacZ (β-galactosidase) in reporter strain D39pcomX::lacZ (group I, ComD1) in assay [1] is 15.3 nM.

CSP1-L4V (peptide): in assay [1], the EC50 of activation of pcomX::lacZ (β-galactosidase) in reporter strain D39pcomX::lacZ (group I, ComD1) turned out to be 113 nM.

In assay [1], CSP1-L13V (peptide) yielded an EC50 of activation of pcomX::lacZ (β-galactosidase) in reporter strain D39pcomX::lacZ (group I, ComD1) of 31 nM.

Turning to “competence stimulating peptide 1 (CSP1) (from UniProt P60242 25-41)”, the EC50 of activation of pcomX::lacZ (β-galactosidase) in reporter strain D39pcomX::lacZ (group I, ComD1) in assay [1] was determined as 10.3 nM.
